Measurements reported in paper PMC6906394, “Radiomodifying action, Pharmacokinetic and Biodistribution of Ethyl 3, 4, 5-trihydroxybenzoate-Implication in development of radiomitigator” (Scientific Reports, 2019).
Entries after “also recorded” stand apart in the source; their conditions may differ. Where two headings read alike, the source gives them in different places.

Test: Biodistribution of GAE in liver, kidney, heart, spleen and brain after oral administration
Format: in vivo, mice
Protocol: The Biodistribution in mice at 15 min, 30 min, 1 h, 2 h, 4 h, 8 h and 24 h after GAE administration are presented in (Fig. 2A,B). […] Moreover; no GAE peak was identified in untreated control and irradiated animals. In the GAE treated group the concentration of GAE is highest in the liver 3383.1 ± 137.79 ng/g at 1 h, 529.13 ± 102.8 ng/g in the kidney at 2 h and 283.1 ± 20.60 ng/g in the brain at 1 h after GAE administration. […] After 2 h of GAE administration its concentration decreased GAE was found in heart, spleen, and kidney up to 4 h, whereas in brain it found in low concentration up to 2 h.
Black C57BL/6 male mice weighing 28–30 g were maintained at the Institutional Animal Experimental Facility. Animals were fed according to standard chow diet having free access to food and water ad libitum. The environmental condition was maintained at room temperature (22 ± 2 °C), relative humidity (45–60%) and 12 h dark/light cycle controlled facility. In this study, mice were randomly assigned to four different groups (n = 21) i.e untreated control (UC), GAE-treated (GAE), Radiation + GAE (R + GAE), Radiation group (R). Mice fasted overnight with free access to water before being dosed. Isolated GAE from leaves was dissolved with distilled water and ethanol in (7:3 v/v) and administered orally at a dose of 200 mg/kg body weight to GAE-treated and R + GAE treated groups only. The experiment was carried out in accordance to regulation and guideline of the, Committee for the purpose of control and supervision of Experiments on animals (CPCSEA), and study was approved by Institutional Animal Experimental Committee (IAEC), Institute of Nuclear Medicine & Allied Science, Delhi, India.
Group I untreated control (UC), Group II GAE-treated (GAE), Group III Radiation + GAE (R + GAE) and Group IV Radiation (R) exposed. The GAE was administered orally 15 min post irradiation. The whole-body radiation (5 Gy) was carried out using Bhabahtron II, Telecobalt machine, Panacea medical technology, Bangalore. The mice exposed at a dose rate of 0.961 Gy/min at field 35 × 35 cm^2 and the distance maintained from the source was 80 cm.
Blood and tissues samples of mice were collected at 15 min, 30 min, 1 h, 2 h, 4 h, 8 h and 24 h after GAE administration (3mice per time). Blood was obtained from retro orbital plexus of mice and collected in heparinized eppendorf tubes, followed by centrifugation at 2500 g for 15 min. The resulting plasma layer was separated and stored in tubes at −20 °C for further analysis. Tissue samples (brain, heart, liver, kidney, and spleen) were weighed and put into the normal saline solution to remove the blood by blotting on filter paper and were minced and homogenized with physiological saline solution (1:2 w/v) thoroughly in an ice bath. The homogenates were stored at −80 °C until the analysis.
For the extraction from tissue, each aliquot (300 µL) of homogenate (liver, kidney, brain, heart & spleen) was spiked with 20 µL of the IS working solution (100 ng/mL) during analysis; homogenate was dispensed in a standing vial containing 400 µL ACN to precipitate proteins. The biological samples were swirled for 3 min and were centrifuged at 12000 rpm for 10 min at 4 °C. The obtained supernatant was tubed and dried under a stream of nitrogen at 40 °C, the sample was reconstituted with mobile phase, then and 20 µL was injected into the HPLC system.
GAE was separated on the high-performance liquid chromatography (HPLC), SPD-10A consisting of binary HPLC pump, ultraviolet detector, and a Rheodyne manual injector equipped with a 20 µl loop (Shimadzu, Japan). Separation was achieved on Kinetex Biphenyl RP 100 Å column (2.6 µm, 150 × 4.6 mm) (Phenomenex, Torrance) installed with phenyl cartridges (Phenomenex, Torrance). The system was controlled using class VP software (Shimadzu, Japan). […]

[1] = R + GAE treated group (5 Gy), 200 mg/kg b.wt oral
[2] = after GAE administration, 200 mg/kg b.wt oral

concentration of GAE (liver, tissue implied by context) [1]: 1928.5 ± 39.63 ng/g
kidney concentration of GAE [1]: 307.77 ± 7.80 ng/g
time up to which GAE was found in brain (low concentration) [2]: up to 2 h
time up to which GAE was found in heart, spleen and kidney [2]: up to 4 h
tissues with the highest concentration (biodistribution, 200 mg/kg b.wt oral): liver and kidney
peak GAE concentration in liver relative to other tissues (both GAE treated and R + GAE treated groups): two fold higher
concentration at 1 h (male, C57BL/6, mouse, brain, po, 200 mg/kg, GAE treated group, 200 mg/kg b.wt oral, read-out: concentration of GAE in the brain): 283 ± 20.6 ng/g
concentration at 1 h (male, C57BL/6, mouse, heart, po, 200 mg/kg, GAE treated animals, 200 mg/kg b.wt oral, read-out: GAE concentration in the heart): 216 ng/g
concentration at 1 h (male, C57BL/6, mouse, heart, po, 200 mg/kg, R + GAE group (5 Gy), 200 mg/kg b.wt oral, read-out: GAE concentration in the heart): 506 ± 39.4 ng/g
concentration at 2 h (male, C57BL/6, mouse, kidney, po, 200 mg/kg, GAE treated group, 2 h, 200 mg/kg b.wt oral): 529 ± 103 ng/g
concentration at 1 h (male, C57BL/6, mouse, liver, po, 200 mg/kg, GAE treated group, 200 mg/kg b.wt oral, read-out: concentration of GAE in the liver): 3380 ± 138 ng/g
concentration at 1 h (male, C57BL/6, mouse, spleen, po, 200 mg/kg, GAE treated animals, 200 mg/kg b.wt oral, read-out: GAE concentration in the spleen): 484 ng/g
concentration at 1 h (male, C57BL/6, mouse, spleen, po, 200 mg/kg, R + GAE group (5 Gy), 200 mg/kg b.wt oral, read-out: GAE concentration in the spleen): 522 ± 73.2 ng/g
SMILES: CCOC(=O)c1cc(O)c(O)c(O)c1 [GAE, Ethyl 3,4,5-trihydroxybenzoate]
crossing of the blood-brain barrier (GAE detected in brain in both GAE and R + GAE treated groups): crosses the blood-brain barrier; also recorded: could cross the blood-brain barrier
